For 20 compounds, inhibition results are on record in US6410566B1, “Cyclic amine derivatives and their use as drugs” (Teijin Limited, priority 2000, dated 2002).

One test deals with T1, binding of human MCP-1 to THP-1 cells (Homo sapiens, UniProt P41597).
T1 construct: endogenous in cells; host or cells: THP-1 (human monocytic leukemia cell line), whole cells
T1 sequence (P41597 1-360 isoform P41597-2): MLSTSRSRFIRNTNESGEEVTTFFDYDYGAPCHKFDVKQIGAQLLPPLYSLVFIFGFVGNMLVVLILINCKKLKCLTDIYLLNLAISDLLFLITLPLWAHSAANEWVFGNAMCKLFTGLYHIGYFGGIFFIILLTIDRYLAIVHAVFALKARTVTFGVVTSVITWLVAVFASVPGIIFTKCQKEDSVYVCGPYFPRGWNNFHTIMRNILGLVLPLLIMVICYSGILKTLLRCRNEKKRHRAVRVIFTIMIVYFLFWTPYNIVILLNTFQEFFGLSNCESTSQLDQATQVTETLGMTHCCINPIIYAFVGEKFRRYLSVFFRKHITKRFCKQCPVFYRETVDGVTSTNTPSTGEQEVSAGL
The experiment in a line: Inhibition of binding of [125I]-labeled baculovirus expressed human MCP-1 to THP-1 cells (Method 2). To be noted: Method 2, at 1 μM. The source says:
1. Construction of recombinant baculovirus carrying the human MCP-1 gene
Based on the previously published human MCP-1 gene sequence (for example T. Yoshirnura et al., FEBS Lett., 1989, 244, 487-493), two synthetic DNA primers (5′-[…]-3′ and 5′-[…]-3′) flanked by restriction enzyme sites were used to amplify a DNA fragment from cDNA derived from human endothelial cells (purchased from Kurabow Co.); the amplified fragment was cut with the restriction enzymes (PstI and XbaI), ligated into a transfer vector pVL1393 (Invitrogen Co.), and the resulting vector was co-transfected along with infectious baculovirus into Sf-9 insect cells and the supernatant was plaque assayed to yield human MCP-1 gene baculovirus recombinant.
2. Synthesis of [^125I]-labeled human MCP-1 expressed in baculovirus
Using the method of K. Ishii et al. (Biochem Biophys Research Communications, 1995, 206, 955-961), 5×10^6 Sf-6 insect cells was infected with 5×10^7 PFU (plaque forming units) of the above human MCP-1 recombinant baculovirus and cultured for 7 days in Ex-Cell 401 medium. The culture supernatant was affinity purified using a heparin Sepharose column (Pharmacia Co.) and then further purified using reverse phase HPLC (Vydac C18 column) to prepare purified human MCP-1. The purified human MCP-1 was protein labeled by Amersham Co. using the Bolton Hunter method to yield [^125I]-labeled baculovirus expressed human MCP-1 (specific activity 2000 Ci/mmol).
3-2. Measurement of inhibition of binding of [^125I]-labeled baculovirus expressed human MCP-1 to THP-1 cells (Method 2)
Human monocytic leukemia cell line THP-1 was suspended in assay buffer (50 mM HEPES, pH 7.4, 1.0 mM CaCl2, 5.0% mM MgCl2, 0.5% BSA) to give a cell suspension of a concentration of 1×10^7 cells/mL. The test compound was diluted in the assay buffer and used as the test compound solution. [^125I]-labeled human MCP-1 described above was diluted in assay buffer to 1 mCi/mL and used as the labeled ligand solution. In a 96 well filter plate (Millipore Co.), 25 μL of test compound solution, 25 μL of labeled ligand solution and 50 μL of cell suspension were aliquoted into each well in this order, stirred (total reaction volume 100 μL), and incubated for one hour at 18° C.
After the reaction, the reaction solution was filtered, and the filter was washed twice with 200 μL of cold PBS (200 μL of cold PBS was added and then filtered). The filter was air-dried and 25 μL of liquid scintillator was added into each well. The radioactivity retained by the cells on the filter were measured using TopCount (Packard Instrument Co.).
To calculate the ability of test compound to inhibit binding of human MCP-1 to THP-1 cells, non-specific binding determined by adding 100 ng of unlabeled human MCP-1 in place of the test compound was subtracted, while the counts with no test compound added was taken as 100%.
Inhibition (%)={1−(A−B)/(C−B)}×100
(A, counts with test compound added; B, counts with 100 ng of unlabeled human MCP-1 added; C, counts with [^125I]-labeled human MCP-1 added).
Consider `Nc1cc(F)c(F)cc1C(=O)NCC(=O)NCC1CCN(Cc2ccc(Cl)cc2)C1` (centres unmarked) [Compound No. 1506, 3-[{N-(2-Amino-4,5-difluorobenzoyl)glycyl}aminomethyl]-1-(4-chlorobenzyl)pyrrolidine], for which the inhibition at 1 µM lay in the range of 50 to 80%.
Compound `Nc1ccc(OC(F)(F)F)cc1C(=O)NCC(=O)NCC1CCN(Cc2ccc(Br)cc2)CC1` [Compound No. 1910, 4-[{N-(2-Amino-5-trifluoromethoxybenzoyl)glycyl}aminomethyl]-1-(4-bromobenzyl)piperidine] displayed an inhibition at 1 µM of 50 to 80%.
Take `CN(C)c1cc(CN2CC[C@@H](NC(=O)CNC(=O)c3cc(C(F)(F)F)ccc3N)C2)ccc1Cl` [Compound No. 2133, (R)-3-[{N-(2-Amino-5-trifluoromethylbenzoyl)glycyl}amino]-1-{4-chloro-3-(dimethylamino)benzyl}pyrrolidine]: the inhibition at 1 µM was greater than 80%.
For `O=C(CNC(=O)c1cccc(C(F)(F)F)c1)NCC1CCN(Cc2ccc(Cl)cc2)C1` (centres unmarked) [Compound No. 1463, 3-[{N-(3-Trifluoromethylbenzoyl)glycyl}aminomethyl]-1-(4-chlorobenzyl)pyrrolidine], the inhibition at 1 µM fell in the range of 20 to 50%.
`Nc1ccc(C(F)(F)F)cc1C(=O)NCC(=O)N[C@@H]1CCN(Cc2ccc(Br)cc2F)C1` [Compound No. 2120, (R)-3-[{N-(2-Amino-5-trifluoromethylbenzoyl)glycyl}amino]-1-(4-bromo-2-fluorobenzyl)pyrrolidine] gave an inhibition at 1 µM greater than 80%.
In turn, `Nc1ccc(Cl)cc1C(=O)NCC(=O)NCC1CCN(Cc2ccc(SC(F)(F)F)cc2)CC1` [Compound No. 1616, 4-[{N-(2-Amino-5-chlorobenzoyl)glycyl}aminomethyl]-1-{4-(trifluoromethylthio)benzyl}piperidine] yielded an inhibition at 1 µM of 20 to 50%.
With `CCOc1ccc(CN2CCC(CNC(=O)CNC(=O)c3cc(Cl)ccc3N)CC2)cc1` [Compound No. 1429, 4-[{-(2-Amino-5-chlorobenzoyl)glycyl}aminomethyl]-1-(4-ethoxybenzyl)piperidine], the inhibition at 1 µM lay in the range of 20 to 50%.
Still for that read-out and setting: in the case of `Nc1ccc(OC(F)(F)F)cc1C(=O)NCC(=O)N[C@@H]1CCN(Cc2ccc(Cl)cc2Cl)C1` [Compound No. 1905, (R)-3-[{N-(2-Amino-5-(trifluoromethoxy)benzoyl)glycyl}amino]-1-(2,4-dichlorobenzyl)pyrrolidine] it was 50 to 80%; in that of `COc1ccc(CN2CCC(CNC(=O)CNC(=O)c3cc(F)c(F)cc3N)CC2)cc1N` [Compound No. 2113, 4-[{N-(2-amino-4,5-difluorobenzoyl)glycyl}aminomethyl]-1-(3-amino-4-methoxybenzyl)piperidine], greater than 80%.
Turning to `CS(=O)(=O)N(c1ccc(Br)cc1C(=O)NCC(=O)NCC1CCN(Cc2ccc(Cl)cc2)CC1)S(C)(=O)=O` [Compound No. 1582, 4-[{N-(5-Bromo-2-(bis(methylsulfonyl)amino)benzoyl)glycyl}aminomethyl]-1-(4-chlorobenzyl)piperidine], the inhibition at 1 µM lay in the range of 20 to 50%.
Compound `Nc1cc2c(cc1CN1CC[C@@H](NC(=O)CNC(=O)c3cc(C(F)(F)F)ccc3N)C1)OCO2` [Compound No. 2127, (R)-1-(2-Amino-4,5-methylenedioxybenzyl)-3-[{N-(2-amino-5-trifluoromethylbenzoyl)glycyl}amino]pyrrolidine] returned an inhibition at 1 µM greater than 80%.
`CS(=O)(=O)Nc1ccc(Br)cc1C(=O)NCC(=O)NCC1CCN(Cc2ccc(Cl)cc2)CC1` [Compound No. 1581, 4-[{N-(5-Bromo-2-(methylsulfonylamino)benzoyl)glycyl}aminomethyl]-1-(4-chlorobenzyl)piperidine] showed an inhibition at 1 µM of 20 to 50%.
`CCOc1ccc(CN2CCC(CNC(=O)CNC(=O)c3cc(F)c(F)cc3N)CC2)cc1OCC` [Compound No. 2065, 4-[{N-(2-amino-4,5-difluorobenzoyl)glycyl}aminomethyl]-1-(3,4-diethoxybenzyl)piperidine] registered an inhibition at 1 µM of 20 to 50%.
The compound `CC(C)c1ccc(CN2CCC(CNC(=O)CNC(=O)c3cc(OC(F)(F)F)ccc3N)CC2)cc1` [Compound No. 1903, 4-[{N-(2-Amino-5-trifluoromethoxybenzoyl)glycyl}aminomethyl]-1-(4-isopropylbenzyl)piperidine] showed an inhibition at 1 µM of 50 to 80%.
On to `Cc1ccc(C(=O)NCC(=O)N[C@@H]2CCN(Cc3ccc(Cl)cc3)C2)cc1Br` [Compound No. 1098, (R)-1-(4-Chlorobenzyl)-3-[{N-(3-bromo-4-methylbenzoyl)glycyl}amino]pyrrolidine], for which the inhibition at 1 µM was in the range of 20 to 50%.
The compound `Nc1cc(CN2CC[C@@H](NC(=O)CNC(=O)c3cc(C(F)(F)F)ccc3N)C2)ccc1O` [Compound No. 2187, (R)-1-(3-Amino-4-hydroxybenzyl)3-[{N-(2Amino-5-trifluoromethylbenzoyl)glycyl}amino]pyrrolidine] returned an inhibition at 1 µM greater than 80%.

In another test the target is T1, binding of human MCP-1 to THP-1 cells. The experiment in a line: Inhibition of binding of [125I]-labeled baculovirus expressed human MCP-1 to THP-1 cells (Method 1). To be noted: Method 1, at 10 μM. The source says:
Measurement of Inhibition of MCP-1 Binding to THP-1 Cells 1. Construction of recombinant baculovirus carrying the human MCP-1 gene Based on the previously published human MCP-1 gene sequence (for example T. Yoshirnura et al., FEBS Lett., 1989, 244, 487-493), two synthetic DNA primers ([NT] and [NT]) flanked by restriction enzyme sites were used to amplify a DNA fragment from cDNA derived from human endothelial cells (purchased from Kurabow Co.); the amplified fragment was cut with the restriction enzymes (PstI and XbaI), ligated into a transfer vector pVL1393 (Invitrogen Co.), and the resulting vector was co-transfected along with infectious baculovirus into Sf-9 insect cells and the supernatant was plaque assayed to yield human MCP-1 gene baculovirus recombinant. […] Using the method of K. Ishii et al. […] The culture supernatant was affinity purified using a heparin Sepharose column (Pharmacia Co.) and then further purified using reverse phase HPLC (Vydac C18 column) to prepare purified human MCP-1. […] 3-1. […] The test. compound was diluted in the assay buffer and used as the test compound solution. [^125I]-labeled human MCP-1 described above was diluted in assay buffer to 1 mCi/mL and used as the labeled ligand solution. In a 96 well filter plate (Millipore Co.), 25 μL of test compound solution, 25 μL of labeled ligand solution and 50 μL of cell suspension were aliquoted into each well in this order, stirred (total reaction volume 100 μL), and incubated for one hour at 18° C. After the reaction, the reaction solution was filtered, and the filter was washed twice with 200 μL of cold PBS (200 μL of cold PBS was added and then filtered). The filter was air-dried and 25 μL of liquid sciatillator was added into each well. The radioactivity retained by the cells on the filter were measured using TopCount (Packard Instrument Co.). To calculate the ability of test compound to inhibit binding of human MCP-1 to THP-1 cells, non-specific binding determined by adding 100 ng of unlabeled human MCP-1 in place of the test compound was subtracted, while the counts with no test compound added was taken as 100%. Inhibition (%)=(1-(A-B)/(C-B))×100 (A, counts with test compound added; B, counts with 100 ng of unlabeled human MCP-1 added; C, counts with [^125I]-labeled human MCP-1 added).
For the compound `O=C(CNC(=O)c1ccccc1)NCC1CCCN(Cc2ccc(Cl)cc2)C1` (centres unmarked) [Compound No. 434, 3-{(N-Benzoylglycyl)amino}methyl-1-(4-chlorobenzyl)piperidine], the inhibition at 10 µM was 50 to 80%.
In turn, `CN(C)c1ccc(CN2CCC(CNC(=O)CNC(=O)c3cccc(C(F)(F)F)c3)CC2)cc1` [Compound No. 937, 1-{4-(Dimethylamino)benzyl}-4-[{N-(3-(trifluoromethyl)benzoyl)glycyl}aminomethyl]piperidine] showed an inhibition at 10 µM of 50 to 80%.

Still in this test, the particulars now being: Method 1, at 100 μM.
`O=C(CNC(=O)c1cc(C(F)(F)F)cc(C(F)(F)F)c1)N[C@H]1CCN(Cc2ccc(Cl)cc2)C1` [compound 5, (S)-3-[N-{3,5-Bis (trifluoromethyl)benzoyl}glycyl]amino-1-(4-chlorobenzyl)pyrrolidine]: the inhibition at 100 µM was greater than 80%.
Still for that read-out and setting: in the case of `Cc1cccc(C(=O)NCC(=O)NC2CCCN(Cc3ccc(Cl)cc3)C2)c1` (centres unmarked) [Compound No. 355, 1-(4-Chlorobenzyl)-3-[{N-(3-methylbenzoyl)glycyl}amino]piperidine] it was greater than 80%.
